Experimental data as given in patent US20130041005A1, “PHARMACEUTICAL COMPOSITIONS COMPRISING NEUROPILIN INHIBITORS, AND THEIR USE FOR THE PREVENTION AND/OR TREATMENT OF ANGIOGENIC DISORDERS AND CANCERS” (TRAGEX PHARMA, priority 2011, published 2013).

Columns and labels:
Assay type in all cases: cell-based
[1] = test system: HUVEC cells; test: WST-1 proliferation assay, HUVEC; settings: for cytotoxicity for endothelial cell lines (HUVEC cells) in culture: FIG. 1 cell survival; for IC50: Homo sapiens, HUVEC, 72 h, read-out: Anti-proliferative activity on HUVEC cells (IC50)
Experimental: (§1) Cells were grown as subconfluent monolayer and cultured in 75 cm^2 flasks at 37° C., 5% CO2 in a humidified atmosphere, and medium was changed every two days. Only cells from passages 2-6 were used for the experiments.
All cells were detached with 3 ml of trypsin/EDTA (chelator of calcium and magnesium ions) (Lonza), incubated for 5 min at 37° C., and examined using a microscope to ensure that the cells were detached and floating. […] The supernatant was removed and the cell pellet resuspended in […] of culture medium. 50 μl of this solution were transferred in 20 μl of isotonic solution and the cells were counted by count cellular (Beckman Coulter).
(§2) The cell proliferation WST-1 assay is a colorimetric assay for the quantification of cell proliferation and viability, based on the enzymatic cleavage of the tetrazolium salt WST-1 added to the culture medium, to a water soluble colored formazan dye, detected by absorbance at 450 nm, by mitochondrial succinate-tetrazolium reductase in viable cells. An augmentation in enzyme activity will then lead to an increase in the amount of formazan dye formed, which directly correlates to the number of metabolically active cells in the culture.
After an incubation period of 72 h, at day 4, were prepared the […] medium with reagent WST-1 […] ([…]). The medium was removed from the 96 microplate and 200 μl of solution WST-1/medium were added for each well. The cells were incubated at 37° C. in a humidified atmosphere of 5% CO2 for 1 h 30 and the absorbance at 450-655 nm was measured by Microplate Manager 5.2 (Bio-Rad).

[2] = test system: VAL; test: WST-1 proliferation assay, VAL; settings: Homo sapiens; B lymphoma VAL; read-out: Anti-proliferative activity IC50 (μM) ± SD
Experimental: (§3) All the cancer cell lines were maintained in cultured in DMEM GlutaMAX™ (GIBCO Invitrogen, France, cat no 31966047) enhanced with 10% foetal bovine serum (GIBCO Invitrogen, France, cat no 10270-106) and 1% penicillin G/streptomycin (GIBCO Invitrogen, France, cat no 15140-122). Only Panc-10.5 cells were cultivated in RPMI 1640 medium (Gibco) supplemented with 2 mM L-glutamine, 1.5 g/L sodium bicarbonate, 4.5 g/L glucose, 10 mM HEPES, 1 mM sodium pyruvate, 10 Units/ml human insulin, […] (SVF): 15% (75 ml in 500 ml of medium).
(§4) Cells were grown as subconfluent monolayer and cultured in 75 cm^2 flasks at 37° C., 5% CO2 in a humidified atmosphere, and medium was changed every two days. […]
(§5) The cell proliferation WST-1 assay is a colorimetric assay for the quantification of cell proliferation and viability, based on the enzymatic cleavage of the tetrazolium salt WST-1 added to the culture medium, to a water soluble colored formazan dye, detected by absorbance at 450 nm, by mitochondrial succinate-tetrazolium reductase in viable cells. […]
(§6) After an incubation period of 72 h, at day 4, were prepared the 19 ml medium with reagent WST-1 1 ml ([…]). […] The cells were incubated at 37° C. in a humidified atmosphere of 5% CO2 for 1 h 30 and the absorbance at 450-655 nm was measured by Microplate Manager 5.2 (Bio-Rad).

[3] = test system: HCT-116; test: WST-1 proliferation assay, HCT-116; settings: Homo sapiens; HCT-116, 0.05 μM
[4] = test system: CEM; test: WST-1 proliferation assay, CEM; settings: Homo sapiens, CCRF-CEM; Acute lymphoblastic leukemia CEM; read-out: Anti-proliferative activity IC50 (μM) ± SD
Experimental: as §3, §4, §5, §6

[5] = test system: LNCaP; test: WST-1 proliferation assay, LNCaP; settings: Homo sapiens; Prostate LNCaP, 72 h; read-out: Anti-proliferative activity IC50 (μM) ± SD
Text: Several cancer cell lines were used: breast cancer cells (MDA-MB-231 (ATTCC® Number HTB-26™), MDA-MB-436 (ATTCC® Number HTB-130™), MDA-MB-438, BT-474 (ATTCC® Number HTB-20™)); cervical cancer cells (HeLa (ATTCC® Number CCL-2™)); colon cancer cells (HCT-116 (ATTCC® Number CCL-247™) and HT-29 (ATTCC® Number HTB-38™)); osteosarcoma cells (U2OS (ATTCC® Number HTB-96™)); pancreas cancer cells (MIA PaCa-2 (ATTCC® Number CRL-1420™) and Panc-10.5 (ATTCC® Number CRL-2547™)); prostate cancer cells (PC-3 (ATTCC® Number CRL-1435™) and LNCaP (ATTCC® Number CRL-1740™)); brain cancer cells (U87 glioblastoma (ATTCC® Number HTB-14™) and SH-SYSY neuroblastoma (ATTCC® Number CRL-2266™)). […]
After observation of cells under the microscope, old media were removed and the adherent cells washed gently twice with PBS (Phosphate Buffer Saline, —Ca^2+, —Mg^2+, Lonza cat no: 17-512F/12). […] 50 μl of this solution were transferred in 20 μl of isotonic solution and the cells were counted by count cellular (Beckman Coulter). […]
as §5

[6] = test system: PC-3; test: WST-1 proliferation assay, PC-3; settings: Homo sapiens; for inhibition at 0.1 µM: PC-3, 0.1 μM; for inhibition at 0.5 µM: PC-3, 0.5 μM; for inhibition at 1 µM: PC-3, 1 μM; for IC50: Prostate PC-3, 72 h, read-out: Anti-proliferative activity IC50 (μM) ± SD
Text: Several cancer cell lines were used: breast cancer cells (MDA-MB-231 (ATTCC® Number HTB-26™), MDA-MB-436 (ATTCC® Number HTB-130™), MDA-MB-438, BT-474 (ATTCC® Number HTB-20™)); cervical cancer cells (HeLa (ATTCC® Number CCL-2™)); colon cancer cells (HCT-116 (ATTCC® Number CCL-247™) and HT-29 (ATTCC® Number HTB-38™)); osteosarcoma cells (U2OS (ATTCC® Number HTB-96™)); pancreas cancer cells (MIA PaCa-2 (ATTCC® Number CRL-1420™) and Panc-10.5 (ATTCC® Number CRL-2547™)); prostate cancer cells (PC-3 (ATTCC® Number CRL-1435™) and LNCaP (ATTCC® Number CRL-1740™)); brain cancer cells (U87 glioblastoma (ATTCC® Number HTB-14™) and SH-SYSY neuroblastoma (ATTCC® Number CRL-2266™)).
as §3, §1
After observation of cells under the microscope, old media were removed and the adherent cells washed gently twice with PBS (Phosphate Buffer Saline, —Ca^2+, —Mg^2+, Lonza cat no: 17-512F/12). All cells were detached with 3 ml of trypsin/EDTA (chelator of calcium and magnesium ions) (Lonza), incubated for 5 min at 37° C., and examined using a microscope to ensure that the cells were detached and floating. Then, 3 ml TNS (Trypsin Neutralizing Solution, Lonza, France, cat no CC-5002) or of culture medium were added to inactivate the trypsin, and the cell suspension was transferred in a falcon and centrifuged for 7 min at 1400 rpm. The supernatant was removed and the cell pellet resuspended in […] of culture medium. 50 μl of this solution were transferred in 20 μl of isotonic solution and the cells were counted by count cellular (Beckman Coulter). At day 0, 200 μl of cellular suspension (3.10^3 cells/well for the HUVEC cells, breast cancer cells (MDA-MB-231 1.10^4 cells/well, MDA-MB-436 1.10^4 cells/well, MDA-MB-438 2.10^4 cells/well, BT-474 2.5.10^4 cells/well); cervical cancer cells (HeLa 5.000 cells/well); colon cancer cells (HCT-116 5.10^3 cells/well, HCT-29 1.1.10^4 cells/well); osteosarcoma cells (U2OS 8.10^3 cells/well); pancreas cancer cells (MIA PaCa-2 5.10^3 cells/well, Panc-10.5 1.5.10^4 cells/well); prostate cancer cells (PC-3 4.10^3 cells/well, LNCaP 2.10^4 cells/well); brain cancer cells (U87 5.10^3 cells/well, SH-SYSY 8.10^4 cells/well)) were then plated on 96 well plates and incubated at 37° C. in a humidified atmosphere of 5% CO2 for 24 h.
At day 1, the compounds 1 or 2 of the invention were added at increasing concentrations (0.1-10 μM) in the wells and plates were incubated at 37° C. in a humidified atmosphere of 5% CO2 for 72 h.
as §2
After an incubation period of 72 h, at day 4, were prepared the 19 ml medium with reagent WST-1 1 ml ([…]). The medium was removed from the 96 microplate and 200 μl of solution WST-1/medium were added for each well. […]

[7] = test system: PC-3; test: WST-1 proliferation assay, PC-3; settings: Homo sapiens; PC-3, 0.05 μM
[8] = test system: U2OS; test: WST-1 proliferation assay, U2OS; settings: Homo sapiens
[9] = test system: HT-1080; test: WST-1 proliferation assay, HT-1080; settings: Homo sapiens; Fibrosarcoma HT-1080; read-out: Anti-proliferative activity IC50 (μM) ± SD
Experimental: as §3, §4, §5, §6

Compound	cytotoxicity for endothelial cell lines (HUVEC cells) in culture [1]	IC50 [1] [nM]	IC50 [2] [µM]	inhibition at 0.05 µM [3] [%]	IC50 [4] [µM]	IC50 [5] [µM]	inhibition at 0.1 µM [6] [%]	inhibition at 0.5 µM [6] [%]	inhibition at 1 µM [6] [%]	IC50 [6] [µM]	inhibition at 0.05 µM [7] [%]	inhibition at 0.05 µM [8] [%]	IC50 [9] [µM]
Cc1ccc(-c2nc3ccccc3[nH]2)cc1NC(=S)NC(=O)c1ccc2c(c1)OCCO2 [Compound 1, N-[5-(1H-benzimidazol-2-yl)-2-methylphenyl]-N′-(2,3-dihydro-1,4-benzodioxin-6-ylcarbonyl)thiourea]	cytotoxic	200 ± 10	1.8 ± 0.04	0	0.5 ± 0.01	1.4 ± 0.13	3	25	47	1.7 ± 0.04	0	9	0.3 ± 0.23
O=C(NC(=S)Nc1cccc(-c2nc3ccccc3[nH]2)c1)c1ccc2c(c1)OCCO2 [Compound 2, N-[3-(1H-benzimidazol-2-yl)phenyl]-N′-(2,3-dihydro-1,4-benzodioxin-6-ylcarbonyl)thiourea]	cytotoxic	50 ± 10	1	25	0.3 ± 0.04	1.3 ± 0.15	29	46	46	1.5 ± 0.12	0	18	0.07 ± 0.03
